In patent US20230089867A1, “CYCLIC PENTAMER COMPOUNDS AS PROPROTEIN CONVERTASE SUBTILISIN/KEXIN TYPE 9 (PCSK9) INHIBITORS FOR THE TREATMENT OF METABOLIC DISORDER” (Novartis AG, priority 2018, published 2023) one finds Max % inhibition and IC50 data, which are given here for 14 molecules.

The target in the test is human PCSK9 (Homo sapiens, UniProt Q8NBP7). The experiment in a line: PCSK9 ligand binding TR-FRET assay (interference with binding of human PCSK9 to human LDLR). The conditions noted are these: for Max % inhibition: PCSK9 FRET assay, efficacy (Amax), 100% = 1 uM unlabeled human PCSK9, 0% = DMSO; for IC50: TR-FRET, human PCSK9 Alexa Fluor 647 / human LDLR extracellular domain-Europium Kryptate, read-out: PCSK9 FRET Assay IC50. Put shortly:
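Threefold compound dilutions were pre-incubated 30 min with PCSK9, after which 4 nM Europium Kryptate-tagged human LDLR ectodomain was added for a further 2 h.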
(In general: TR-FRET usually uses a lanthanide donor and a delayed reading to cut background.)

Chain of human PCSK9 (Q8NBP7 153-692): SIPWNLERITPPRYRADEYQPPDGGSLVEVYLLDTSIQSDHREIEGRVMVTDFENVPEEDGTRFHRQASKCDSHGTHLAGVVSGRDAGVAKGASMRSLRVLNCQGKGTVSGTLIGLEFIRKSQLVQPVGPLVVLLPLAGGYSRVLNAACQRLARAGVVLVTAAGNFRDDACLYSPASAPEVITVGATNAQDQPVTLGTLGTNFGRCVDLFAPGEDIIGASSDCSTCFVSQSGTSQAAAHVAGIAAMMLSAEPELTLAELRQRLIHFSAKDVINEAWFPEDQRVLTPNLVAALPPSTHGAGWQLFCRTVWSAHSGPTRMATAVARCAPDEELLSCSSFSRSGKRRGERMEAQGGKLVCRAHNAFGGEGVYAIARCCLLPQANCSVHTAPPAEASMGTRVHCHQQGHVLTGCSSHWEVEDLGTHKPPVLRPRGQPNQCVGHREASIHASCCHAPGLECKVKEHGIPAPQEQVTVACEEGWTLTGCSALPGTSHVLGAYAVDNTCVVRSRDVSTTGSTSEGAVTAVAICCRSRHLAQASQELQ
Chain of human PCSK9 (Q8NBP7 31-152 partner limits assumed): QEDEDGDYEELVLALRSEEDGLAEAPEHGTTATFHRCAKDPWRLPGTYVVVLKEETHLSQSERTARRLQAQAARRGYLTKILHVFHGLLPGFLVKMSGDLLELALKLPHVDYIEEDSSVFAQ

As a reminder, the IC50 is the concentration that gives 50% inhibition. Take `COC[C@@H]1NC(=O)[C@H](C)N(Cc2ccc(Cl)cc2Oc2ccc(-n3cc(CN4CCCCC4)nn3)cc2)C(=O)C[C@@H](Cc2ccccc2)C(=O)N(C)[C@@H](C)CNC(=O)C[C@H](Cc2ccc(Cl)cc2)N(C)C1=O` [Compound 128, (2S,5S,8S,13S,16R)-16-benzyl-1-(4-chloro-2-(4-(4-(piperidin-1-ylmethyl)-1H-1,2,3-triazol-1-yl)phenoxy)benzyl)-8-(4-chlorobenzyl)-5-(methoxymethyl)-2,7,13,14-tetramethyl-1,4,7,11,14-pentaazacyclooctadecane-3,6,10,15,18-pentaone]: the Max % inhibition came to 51.35% and the IC50 came to 20.4 nM.
The corresponding values for `COC[C@@H]1NC(=O)[C@H](C)N(Cc2ccc(Cl)cc2Oc2ccc(-c3cnc(CN(C)C)n3C)cc2)C(=O)C[C@@H](Cc2ccccc2)C(=O)N(C)[C@@H](C(=O)OC)CNC(=O)C[C@H](Cc2ccc(Cl)cc2)N(C)C1=O` [Compound 71, (2S,5S,8S,13R,16R)-methyl 16-benzyl-1-(4-chloro-2-(4-(2-((dimethylamino)methyl)-1-methyl-1H-imidazol-5-yl)phenoxy)benzyl)-8-(4-chlorobenzyl)-5-(methoxymethyl)-2,7,14-trimethyl-3,6,10,15,18-pentaoxo-1,4,7,11,14-pentaazacyclooctadecane-13-carboxylate] are 102.12% and 12.9 nM.
On the same counts, the results for `CNCC[C@H]1C(=O)N[C@@H](COC)C(=O)N(C)[C@@H](Cc2ccc(Cl)cc2)CC(=O)N[C@H]2CCCC[C@@H]2N(C)C(=O)[C@H](Cc2ccccc2)CC(=O)N1Cc1ccc(Cl)cc1Oc1ccc(-c2cnc(CN(C)C)n2C)cc1` [Compound 3, (4S,7S,10S,14R,16aS,20aS)-14-benzyl-11-(4-chloro-2-(4-(2-((dimethylamino)methyl)-1-methyl-1H-imidazol-5-yl)phenoxy)benzyl)-4-(4-chlorobenzyl)-7-(methoxymethyl)-5,16-dimethyl-10-(2-(methylamino)ethyl)hexadecahydrobenzo[l][1,4,7,11,14]pentaazacyclooctadecine-2,6,9,12,15(3H)-pentaone] are 95.68% and 1.3 nM.
On the same counts, the results for `C[C@H]1C(=O)N[C@@H](COC(F)F)C(=O)N(C)[C@@H](Cc2ccc(Cl)cc2)CC(=O)N[C@H]2CCCC[C@@H]2N(C)C(=O)[C@H](Cc2ccccc2)CC(=O)N1Cc1ccc(Cl)cc1Oc1ccc(-c2cnc(CN(C)C)n2C)cc1` [Compound 79, (4S,7S,10S,14R,16aS,20aS)-14-benzyl-11-(4-chloro-2-(4-(2-((dimethylamino)methyl)-1-methyl-1H-imidazol-5-yl)phenoxy)benzyl)-4-(4-chlorobenzyl)-7-((difluoromethoxy)methyl)-5,10,16-trimethylhexadecahydrobenzo[l][1,4,7,11,14]pentaazacyclooctadecine-2,6,9,12,15(3H)-pentaone] are 103.04% and 1.8 nM.
Regarding `COC[C@@H]1NC(=O)[C@H](CCO)N(Cc2ccc(Cl)cc2Oc2ccc(-c3cnc(CN(C)C)n3C)cc2)C(=O)C[C@@H](Cc2ccccc2)C(=O)N(C)[C@@H](C)CNC(=O)C[C@H](Cc2ccc(Cl)cc2)N(C)C1=O` [Compound 87, (2S,5S,8S,13S,16R)-16-benzyl-1-(4-chloro-2-(4-(2-((dimethylamino)methyl)-1-methyl-1H-imidazol-5-yl)phenoxy)benzyl)-8-(4-chlorobenzyl)-2-(2-hydroxyethyl)-5-(methoxymethyl)-7,13,14-trimethyl-1,4,7,11,14-pentaazacyclooctadecane-3,6,10,15,18-pentaone], the Max % inhibition came out at 87.74% and the IC50 is 497 nM.
As for `COC[C@@H]1NC(=O)[C@H](C)N(Cc2ccc(Cl)cc2Oc2ccc(-c3cnc4n3CCNC4)cc2)C(=O)C[C@@H](Cc2ccccc2)C(=O)N(C)[C@@H](C)CNC(=O)C[C@H](Cc2ccc(Cl)cc2)N(C)C1=O.O=C(O)C(F)(F)F` [Compound 121, (2S,5S,8S,13S,16R)-16-benzyl-1-(4-chloro-2-(4-(5,6,7,8-tetrahydroimidazo[1,2-a]pyrazin-3-yl)phenoxy)benzyl)-8-(4-chlorobenzyl)-5-(methoxymethyl)-2,7,13,14-tetramethyl-1,4,7,11,14-pentaazacyclooctadecane-3,6,10,15,18-pentaone trifluoroacetate], the Max % inhibition stood at 59.89% and the IC50 turned out to be 2.8 nM.
The corresponding values for `COC[C@@H]1NC(=O)[C@H](C)N(Cc2c(OC)cccc2Oc2ccc(-c3cnc(CN(C)C)n3C)cc2)C(=O)C[C@@H](Cc2ccccc2)C(=O)N(C)[C@@H](C)CNC(=O)C[C@H](Cc2ccc(Cl)cc2)N(C)C1=O` [Compound 154, (2S,5S,8S,13S,16R)-16-benzyl-8-(4-chlorobenzyl)-1-(2-(4-(2-((dimethylamino)methyl)-1-methyl-1H-imidazol-5-yl)phenoxy)-6-methoxybenzyl)-5-(methoxymethyl)-2,7,13,14-tetramethyl-1,4,7,11,14-pentaazacyclooctadecane-3,6,10,15,18-pentaone] are 80.05% and 5.1 nM.
The corresponding values for `C=CC[C@@H]1CC(=O)N(Cc2ccc(Cl)cc2Oc2ccc(-c3cnc(CN(C)C)n3C)cc2)[C@@H](C)C(=O)N[C@@H](COC)C(=O)N(C)[C@@H](Cc2ccc(Cl)cc2)CC(=O)N[C@H]2CCCC[C@@H]2N(C)C1=O` [Compound 110, (4S,7S,10S,14R,16aS,20aS)-14-allyl-11-(4-chloro-2-(4-(2-((dimethylamino)methyl)-1-methyl-1H-imidazol-5-yl)phenoxy)benzyl)-4-(4-chlorobenzyl)-7-(methoxymethyl)-5,10,16-trimethylhexadecahydrobenzo[l][1,4,7,11,14]pentaazacyclooctadecine-2,6,9,12,15(3H)-pentaone] are 99.22% and 1.2 nM.
For `COC[C@@H]1NC(=O)[C@H](CCCCN(C)C)N(Cc2ccc(Cl)cc2Oc2ccc(-c3cnc(CN(C)C)n3C)cc2)C(=O)C[C@@H](Cc2ccccc2)C(=O)N(C)[C@@H](C)CNC(=O)C[C@H](Cc2ccc(Cl)cc2)N(C)C1=O` [Compound 225, (2S,5S,8S,13S,16R)-16-benzyl-1-(4-chloro-2-(4-(2-((dimethylamino)methyl)-1-methyl-1H-imidazol-5-yl)phenoxy)benzyl)-8-(4-chlorobenzyl)-2-(4-(dimethylamino)butyl)-5-(methoxymethyl)-7,13,14-trimethyl-1,4,7,11,14-pentaazacyclooctadecane-3,6,10,15,18-pentaone], the Max % inhibition is 98.86% and the IC50 was 8 nM.
The corresponding values for `C[C@H]1CNC(=O)C[C@H](Cc2ccc(Cl)cc2)N(C)C(=O)[C@H](CO)NC(=O)[C@H](C)N(Cc2ccccc2OCC(=O)N2Cc3cccnc3C2)C(=O)C[C@@H](Cc2ccccc2)C(=O)N1C` (stereo in doubt) [Compound 143, (2S,5S,8S,13S,16R)-16-benzyl-8-(4-chlorobenzyl)-5-(hydroxymethyl)-2,7,13,14-tetramethyl-1-(2-(2-oxo-2-(5H-pyrrolo[3,4-b]pyridin-6(7H)-yl)ethoxy)benzyl)-1,4,7,11,14-pentaazacyclooctadecane-3,6,10,15,18-pentaone] are 49.36% and 774 nM.
As for `COC[C@@H]1NC(=O)[C@H](C)N(Cc2ccc(Cl)cc2Oc2ccc(-n3cnc(CN(C)C)c3C)cc2)C(=O)C[C@@H](Cc2ccccc2)C(=O)N(C)[C@H]2CCCC[C@@H]2NC(=O)C[C@H](Cc2ccc(Cl)cc2)N(C)C1=O` [Compound 292, (4S,7S,10S,14R,16aS,20aS)-14-benzyl-11-(4-chloro-2-(4-(4-((dimethylamino)methyl)-5-methyl-1H-imidazol-1-yl)phenoxy)benzyl)-4-(4-chlorobenzyl)-7-(methoxymethyl)-5,10,16-trimethylhexadecahydrobenzo[l][1,4,7,11,14]pentaazacyclooctadecine-2,6,9,12,15(3H)-pentaone], the Max % inhibition amounted to 113.30% and the concentration for half-maximal inhibition (IC50) was determined as 3 nM.
On the same counts, the results for `COC[C@@H]1NC(=O)[C@H](C)N(Cc2ccc(Cl)cc2Oc2ccc(-c3cnc([C@@H](C)N(C)C)n3C)cc2)C(=O)C[C@@H](Cc2ccccc2)C(=O)N(C)[C@H]2CCCC[C@@H]2NC(=O)C[C@H](Cc2ccc(Cl)cc2)N(C)C1=O` [Compound 104, (4S,7S,10S,14R,16aS,20aS)-14-benzyl-11-(4-chloro-2-(4-(2-((R)-1-(dimethylamino)ethyl)-1-methyl-1H-imidazol-5-yl)phenoxy)benzyl)-4-(4-chlorobenzyl)-7-(methoxymethyl)-5,10,16-trimethylhexadecahydrobenzo[l][1,4,7,11,14]pentaazacyclooctadecine-2,6,9,12,15(3H)-pentaone] are 109.94% and 1.4 nM.
On to `COC[C@@H]1NC(=O)[C@H](C)N(Cc2ccc(Cl)cc2Oc2ccc(-c3cnc(CN4CCCC4)n3C)cc2)C(=O)C[C@@H](Cc2ccccc2)C(=O)N(C)[C@@H](C)CNC(=O)C[C@H](Cc2ccc(Cl)cc2)N(C)C1=O` [Compound 138, (2S,5S,8S,13S,16R)-16-benzyl-1-(4-chloro-2-(4-(1-methyl-2-(pyrrolidin-1-ylmethyl)-1H-imidazol-5-yl)phenoxy)benzyl)-8-(4-chlorobenzyl)-5-(methoxymethyl)-2,7,13,14-tetramethyl-1,4,7,11,14-pentaazacyclooctadecane-3,6,10,15,18-pentaone], for which the Max % inhibition is given as 98.02% and the IC50 stood at 1.5 nM.
For the molecule `COC[C@@H]1NC(=O)[C@H](C)N(Cc2ccc(Cl)cc2Oc2ccc(-c3cnc(CN(C)C)n3C)cc2)C(=O)C[C@@H](C)C(=O)N(C)[C@@H](CC(C)C)CNC(=O)C[C@H](Cc2ccc(Cl)cc2)N(C)C1=O` [Compound 255, (5S,8S,13S,16R)-1-(4-chloro-2-(4-(2-((dimethylamino)methyl)-1-methyl-1H-imidazol-5-yl)phenoxy)benzyl)-8-(4-chlorobenzyl)-13-isobutyl-5-(methoxymethyl)-2,7,14,16-tetramethyl-1,4,7,11,14-pentaazacyclooctadecane-3,6,10,15,18-pentaone], the Max % inhibition is given as 64.95% and the IC50 was 19.7 nM.
